Source: patent US7795290B2 (Genentech, Inc., priority 2004, dated 2010)

The compounds below were run against T1, AKT1 (Homo sapiens, UniProt P31749) (assay: HTS ATP-utilizing enzyme assay, off-chip mobility-shift (Caliper HTS 250)). Details: kinase named = inhibitory activity/selectivity; test compound 10 μM; active = greater than three-sigma from mean.
T1 construct: purchased Upstate 14-276
Assay type: biochemical
Text: The following procedures describe the reagent and plate preparation for a HTS of an ATP-utilizing enzyme, such as a protein kinase, run in an off-chip mobility-shift assay format. The following provides an HTS protocol for running a protein kinase HTS screen on a Caliper HTS 250 microfluidics system. The following parameters are dependent on the protein kinase used and can be determined by one skilled in the art as part of a typical assay development process. For example, the peptide substrate used can be identified from the current literature, by screening a peptide library of potential protein kinase substrates, or by other applicable means accepted in the field.
The following table provides typical screen assay parameters appropriate for a Caliper HTS 250 microfluidics system used to assay AKT1. Parameters used to assay other protein kinases can be determined by one skilled in the art.
Assays to determine the kinase inhibitory activity of chemical entities of the present disclosure were performed using a Caliper HTS 250 microfluidics device, Greiner U-bottom assay plates, a Multidrop for transfer of reagents, and Biomek FX (AMNCBM03) software. Initially, 2.4 μL of a 1 mM solution of a test compound in 100% DMSO was added to a well of the Greiner U-bottom plate. A single Greiner U-bottom plate having 24×16 wells could include multiple test compounds. […] Using the Biomek FX, 10 μL of 0.5 M EDTA was added by the span-8 to wells, indicated as 100% Control and 2.4 μL of 100% DMSO was added by the span-8 to wells, indicated as 0% Control. […] The total reaction volume in each well was 25 μL, and the concentration of the test compound was 10 μM. The assay plate was incubated for 2.5 hrs at 20° C. to 22° C. […] The inhibition of the ATP-utilizing enzyme, such as a particular protein kinase, was determined by measuring the ratio of the peptide substrate to phosphorylated product for each well of the assay plate using the Caliper HTS 250 system.
The use of three-sigma statistical limits represents a conservative method for declaring potential hits among targets. The three-sigma activity, as well as the mean population activity, can be different for each target enzyme.
Each chemical entity listed in Table 2 was tested for protein kinase inhibitory activity according to the biological assays and definitions of protein kinase inhibitory activity as described herein.

T1 sequence (P31749 whole entry): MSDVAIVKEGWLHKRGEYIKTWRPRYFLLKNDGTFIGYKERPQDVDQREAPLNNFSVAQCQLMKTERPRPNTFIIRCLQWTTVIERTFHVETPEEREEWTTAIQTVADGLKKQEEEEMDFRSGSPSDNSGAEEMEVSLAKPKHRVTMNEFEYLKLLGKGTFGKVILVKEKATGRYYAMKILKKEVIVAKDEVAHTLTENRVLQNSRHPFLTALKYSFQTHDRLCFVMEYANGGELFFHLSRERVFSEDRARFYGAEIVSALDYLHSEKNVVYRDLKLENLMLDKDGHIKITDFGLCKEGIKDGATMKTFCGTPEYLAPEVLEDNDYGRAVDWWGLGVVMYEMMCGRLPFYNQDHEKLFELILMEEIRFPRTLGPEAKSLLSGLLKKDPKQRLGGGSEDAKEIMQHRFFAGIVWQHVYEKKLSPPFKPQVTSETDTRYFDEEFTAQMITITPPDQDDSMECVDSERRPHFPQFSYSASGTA

Activity, AKT1:
O=C(NCCO)C1CCCN(C(=O)CCN(C(=O)c2cccs2)c2nc(-c3cc4ccccc4o3)cs2)C1 (stereo not shown) [1-(3-(N-(4-(benzofuran-2-yl)thiazol-2-yl)thiophene-2-carboxamido)propanoyl)-N-(2-hydroxyethyl)piperidine-3-carboxamide]
NC(=O)C1CCCCN1C(=O)CCN(C(=O)c1cccs1)c1nc(-c2cc3ccccc3o2)cs1 (stereo not shown) [1-(3-(N-(4-(benzofuran-2-yl)thiazol-2-yl)thiophene-2-carboxamido)propanoyl)piperidine-2-carboxamide]
NC(=O)C1CCCN(C(=O)CCN(C(=O)c2cccs2)c2nc(-c3cc4ccccc4o3)cs2)C1 (stereo not shown) [1-(3-(N-(4-(benzofuran-2-yl)thiazol-2-yl)thiophene-2-carboxamido)propanoyl)piperidine-3-carboxamide]
O=C(O)C1CCCN(C(=O)CCN(C(=O)c2cccs2)c2nc(-c3cc4ccccc4o3)cs2)C1 (stereo not shown) [1-(3-(N-(4-(benzofuran-2-yl)thiazol-2-yl)thiophene-2-carboxamido)propanoyl)piperidine-3-carboxylic acid]
NC(=O)C1CCCN1C(=O)CCN(C(=O)c1cccs1)c1nc(-c2cc3ccccc3o2)cs1 (stereo not shown) [1-(3-(N-(4-(benzofuran-2-yl)thiazol-2-yl)thiophene-2-carboxamido)propanoyl)pyrrolidine-2-carboxamide]
CCN(CC)C(=O)C1CCCN(CCCN(C(=O)c2cccs2)c2nc(-c3cc4ccccc4o3)cs2)C1 (stereo not shown) [1-(3-(N-(4-(benzofuran-2-yl)thiazol-2-yl)thiophene-2-carboxamido)propyl)-N,N-diethylpiperidine-3-carboxamide]
CNC(=O)C1CCN(CCCN(C(=O)c2cccs2)c2nc(-c3cc4ccccc4o3)cs2)CC1 [1-(3-(N-(4-(benzofuran-2-yl)thiazol-2-yl)thiophene-2-carboxamido)propyl)-N-methylpiperidine-4-carboxamide]
NC(=O)C1CCCCN1CCCN(C(=O)c1cccs1)c1nc(-c2cc3ccccc3o2)cs1 (stereo not shown) [1-(3-(N-(4-(benzofuran-2-yl)thiazol-2-yl)thiophene-2-carboxamido)propyl)piperidine-2-carboxamide]
NC(=O)C1CCCN(CCCN(C(=O)c2cccs2)c2nc(-c3cc4ccccc4o3)cs2)C1 (stereo not shown) [1-(3-(N-(4-(benzofuran-2-yl)thiazol-2-yl)thiophene-2-carboxamido)propyl)piperidine-3-carboxamide]
NC(=O)C1CCN(CCCN(C(=O)c2cccs2)c2nc(-c3cc4ccccc4o3)cs2)CC1 [1-(3-(N-(4-(benzofuran-2-yl)thiazol-2-yl)thiophene-2-carboxamido)propyl)piperidine-4-carboxamide]
NC(=O)C1CCCN1CCCN(C(=O)c1cccs1)c1nc(-c2cc3ccccc3o2)cs1 (stereo not shown) [1-(3-(N-(4-(benzofuran-2-yl)thiazol-2-yl)thiophene-2-carboxamido)propyl)pyrrolidine-2-carboxamide]
O=C(NCCO)C1CCN(C(=O)CCCN(C(=O)c2cccs2)c2nc(-c3cc4ccccc4o3)cs2)CC1 [1-(4-(N-(4-(benzofuran-2-yl)thiazol-2-yl)thiophene-2-carboxamido)butanoyl)-N-(2-hydroxyethyl)piperidine-4-carboxamide]
CNC(=O)C1CCN(C(=O)CCCN(C(=O)c2cccs2)c2nc(-c3cc4ccccc4o3)cs2)CC1 [1-(4-(N-(4-(benzofuran-2-yl)thiazol-2-yl)thiophene-2-carboxamido)butanoyl)-N-methylpiperidine-4-carboxamide]
NC(=O)C1CCCN(C(=O)CCCN(C(=O)c2cccs2)c2nc(-c3cc4ccccc4o3)cs2)C1 (stereo not shown) [1-(4-(N-(4-(benzofuran-2-yl)thiazol-2-yl)thiophene-2-carboxamido)butanoyl)piperidine-3-carboxamide]
NC(=O)C1CCN(C(=O)CCCN(C(=O)c2cccs2)c2nc(-c3cc4ccccc4o3)cs2)CC1 [1-(4-(N-(4-(benzofuran-2-yl)thiazol-2-yl)thiophene-2-carboxamido)butanoyl)piperidine-4-carboxamide]
NC(=O)C1CCCN1C(=O)CCCN(C(=O)c1cccs1)c1nc(-c2cc3ccccc3o2)cs1 (stereo not shown) [1-(4-(N-(4-(benzofuran-2-yl)thiazol-2-yl)thiophene-2-carboxamido)butanoyl)pyrrolidine-2-carboxamide]
CC(=O)N1CCC(C(=O)NCCCN(C(=O)c2cccs2)c2nc(-c3cc4ccccc4o3)cs2)CC1 [1-acetyl-N-(3-(N-(4-(benzofuran-2-yl)thiazol-2-yl)thiophene-2-carboxamido)propyl)piperidine-4-carboxamide]
Cn1cccc1C(=O)N(CCCN1CCCC1=O)c1nc(-c2cc(-c3ccccc3)no2)cs1 [1-methyl-N-(3-(2-oxopyrrolidin-1-yl)propyl)-N-(4-(3-phenylisoxazol-5-yl)thiazol-2-yl)-1H-pyrrole-2-carboxamide]
Cn1cccc1C(=O)N(CCCN1CCOCC1)c1nc(-c2cc(-c3ccccc3)no2)cs1 [1-methyl-N-(3-morpholinopropyl)-N-(4-(3-phenylisoxazol-5-yl)thiazol-2-yl)-1H-pyrrole-2-carboxamide]
O=C(O)COc1cccc(-c2csc(N(CCCN3CCOCC3)C(=O)c3cccs3)n2)c1 [2-(3-(2-(N-(3-morpholinopropyl)thiophene-2-carboxamido)thiazol-4-yl)phenoxy)acetic acid]
O=C(O)CNC(=O)c1ccc(-c2csc(N(CCCN3CCOCC3)C(=O)c3cccs3)n2)cc1 [2-(4-(2-(N-(3-morpholinopropyl)thiophene-2-carboxamido)thiazol-4-yl)benzamido)acetic acid]
O=C(O)COc1ccc(-c2csc(N(CCCN3CCOCC3)C(=O)c3cccs3)n2)cc1 [2-(4-(2-(N-(3-morpholinopropyl)thiophene-2-carboxamido)thiazol-4-yl)phenoxy)acetic acid]
O=C(O)Cc1ccc(-c2csc(N(CCCN3CCOCC3)C(=O)c3cccs3)n2)s1 [2-(5-(2-(N-(3-morpholinopropyl)thiophene-2-carboxamido)thiazol-4-yl)thiophen-2-yl)acetic acid]
O=C(Nc1nncs1)c1csc(N(CCCN2CCOCC2)C(=O)c2cccs2)n1 [2-(N-(3-morpholinopropyl)thiophene-2-carboxamido)-N-(1,3,4-thiadiazol-2-yl)thiazole-4-carboxamide]
O=C(Nc1nccs1)c1csc(N(CCCN2CCOCC2)C(=O)c2cccs2)n1 [2-(N-(3-morpholinopropyl)thiophene-2-carboxamido)-N-(thiazol-2-yl)thiazole-4-carboxamide]
COc1ccc(-c2csc(N(CCCN3CCOCC3)C(=O)c3ccccc3F)n2)cc1 [2-fluoro-N-(4-(4-methoxyphenyl)thiazol-2-yl)-N-(3-morpholinopropyl)benzamide]
O=C(O)c1cccc(-c2csc(N(CCCN3CCOCC3)C(=O)c3cccs3)n2)c1 [3-(2-(N-(3-morpholinopropyl)thiophene-2-carboxamido)thiazol-4-yl)benzoic acid]
O=C(O)CCOc1cccc(-c2csc(N(CCCN3CCOCC3)C(=O)c3cccs3)n2)c1 [3-(3-(2-(N-(3-morpholinopropyl)thiophene-2-carboxamido)thiazol-4-yl)phenoxy)propanoic acid]
O=C(O)CCOc1ccc(-c2csc(N(CCCN3CCOCC3)C(=O)c3cccs3)n2)cc1 [3-(4-(2-(N-(3-morpholinopropyl)thiophene-2-carboxamido)thiazol-4-yl)phenoxy)propanoic acid]
COc1ccc(-c2csc(N(CCCN3CCOCC3)C(=O)c3cccc(F)c3)n2)cc1 [3-fluoro-N-(4-(4-methoxyphenyl)thiazol-2-yl)-N-(3-morpholinopropyl)benzamide]
Cc1cccc(C(=O)N(CCCN2CCOCC2)c2nc(-c3ccccc3)cs2)c1 [3-methyl-N-(3-morpholinopropyl)-N-(4-phenylthiazol-2-yl)benzamide]
